Reference: patent publication US9107964B2, “Radioactive fluorine-labeled compound” (NIHON MEDI-PHYSICS CO., LTD., priority 2011, dated 2015)

How the values were obtained:
[1] = system: EMT6 tumor-bearing model mice; test: Biodistribution in tumor and organs of tumor-bearing mouse (Example 14); format: in vivo, mouse (Balb/c nu/nu); conditions: mean
Description: The biodistribution of compounds 1 to 3 and [^18F]FMISO in a tumor and each of the organs of a tumor-bearing mouse was measured.
Tumor-bearing model mice used in this experiment were the same as those prepared in Example 10, and 3 or 4 cases that had attained a tumor volume of 200 to 400 mm^3 were selected from each group. The tumor-bearing model mouse was placed under isoflurane anesthesia, pimonidazole that is a hypoxic marker, was administered via a tail vein, and at 10 minutes thereafter, the respective labeled compound was administered. The tumor-bearing model mouse was sacrificed at 60 minutes and 120 minutes after administration. All of the tumor-bearing model mice were sacrificed by blood-letting from the abdominal aorta or by cardiocentesis, and dissection was carried out immediately thereafter. Other than the tumor, the blood, heart, lung, stomach, liver, gallbladder, kidney, small intestine and large intestine, muscle, and urine were sampled, and the other tissues were defined as the remaining whole body. After the weight of each tissue sampled was measured, the amount of radioactivity of the tissue was measured using a gamma counter, and the biodistribution of each of the labeled compounds was compared by converting it into % ID/g (% injection dose/g organ) of each tissue.
In order to examine a hypoxic state within the tumor, immunohistochemical staining of the sample tumor was carried out so as to ascertain whether or not the interior of the tumor was hypoxic. The sampled tumor was fixed using a 20% formalin buffer, and a paraffin block was prepared using an automatic paraffin-embedding apparatus (model: VIP-5-Jr-J0, Sakura Finetek). A slice (thickness: 3 μm) was prepared by means of a microtome (model: Tissue-Tek Feather Trustome, Sakura Finetek). Immunohistochemical staining was carried out by the same method as in Example 12.

[2] = system: hypoxic region of EMT6 tumor (pimonidazole-positive site); test: Localization of accumulation within tumor by autoradiography versus pimonidazole immunohistochemical staining; format: in vivo, mouse (Balb/c nu/nu); conditions: autoradiography and immunohistochemical staining of the same tumor section
Description: In order to evaluate whether or not the compound related to the present invention could visualize a hypoxic region of a tumor, the following experiment was carried out using compounds 1 to 3 and [^18F]FMISO.
Localization of accumulation of each of the labeled compounds within a tumor was confirmed by autoradiography. After PET imaging of a tumor-bearing model mouse prepared by the method of […] was completed, it was sacrificed by blood-letting by cardiocentesis, immediately thereafter the tumor was sampled, and tissue sections (thickness: 10 μm) were prepared using a cryostat (model: CM3050, manufactured by Leica). […] After exposing an imaging plate to this tumor tissue section for 8 to 10 hours, an image was captured using a bioimaging analyzer (model: BAS-2500, manufactured by FUJIFILM). The image thus captured was subjected to image analysis using image analysis software.
Separately, as a method for confirming a hypoxic region within a tumor, the same section after decay of radioactivity was subjected to immunohistochemical staining using pimonidazole that is a hypoxic marker, by the following procedure. […]

[3] = system: hypoxic region of EMT6 tumor (pimonidazole-positive area); test: Correlation between autoradiographic signal intensity (PSL value) and pimonidazole-positive area (Example 13); format: in vivo, mouse (Balb/c nu/nu); conditions: tumor tissue sections after PET imaging
Description: In order to evaluate whether or not the compound related to the present invention can quantitatively visualize a hypoxic region of a tumor, the following experiment was carried out using compounds 1 to 3 and [^18F]FMISO.
Using a microscope system (model: BZ-9000, Keyence Corporation) a high magnification image of a pimonidazole-positive site was acquired using the entire image of a pathology image obtained by immunohistochemical staining in the Example 12 and a 10× objective lens. The high magnification image was formed with respect to a randomly selected image region. At the same time the image acquisition site was recorded as a navigation image by use of the navigation function of the microscope system. The acquired high magnification image was subjected to image processing, and a pimonidazole-positive area present in the high magnification image was determined.
The autoradiographic image and the stained image of each labeled compound used were those acquired in the Example 12. The resolution of the navigation image was made to match the resolution of the autoradiographic image, and the geometrical positions of two images were aligned using image analysis software.
In the autoradiographic image, an ROI was set for the site that coincided with the high magnification image acquisition site, and the PSL value (Photo-Stimulated Luminescence value) of the ROI was determined. Furthermore, an ROI was set for a site of the same image that contained no sample, and the PSL value thereof was defined as the background. The PSL value of the background was subtracted from the PSL value of the high magnification image acquisition site to obtain the net PSL value. The hypoxic marker pimonidazole-positive area was plotted on the abscissa and the PSL value in the autoradiographic image on the ordinate, and the correlation factor was determined. This series of operations was carried out for each of the labeled compounds.

[4] = system: mouse-derived breast cancer cell line (EMT6) tumor-bearing model mice; test: Measurement of SUV within tumor and calculation of tumor/normal tissue ratio (Example 11); conditions: 60 minutes after administration
Description: The tumor-bearing model mouse thus prepared was placed under isoflurane anesthesia, and about 20 MBq of these sample solutions was administered via a tail vein. static imaging was carried out using a PET system for animals (model: eXplore Vista, manufactured by GE) at 60 minutes after administration. […] Data thus collected were reconstituted by the OSEM method to thus form an image, and a coronal tomographic image and an axial tomographic image were formed using image analysis software.
The maximum value for SUV within the tumor was measured using the axial tomographic images acquired in the Example 10. For all slice planes of an axial tomographic image where the tumor was visualized, a region of interest (hereinafter, called an ROI) was set for the entire tumor and measured. The axial tomographic image was formed from 61 slice planes, and the SUV that was the highest among the measured slice planes was defined as a maximum value for SUV 60 minutes after administration (SUV maximum value in tumor). […] The average value for signal intensity within the ROI was determined, and the average value for values measured for the slice planes was defined as the average value for SUV in normal tissue. The tumor/normal tissue ratio was calculated using the following equation (1) and used as a […] indicator with respect to contrast between the tumor and normal tissue.

[5] = 60 minutes after administration
[6] = 120 minutes after administration

O=[N+]([O-])c1nccn1CC(O)C[18F] (centres unmarked) [[^18F]FMISO, [^18F]fluoromisonidazole, reference compound] was tested, and the Blood [1, 5] was 4.45 % ID/g, the Gall bladder [1, 5] was 12.92 % ID/g and the Heart [1, 5] was 5.12 % ID/g. For the same compound, the Kidney [1, 5] was 8.52 % ID/g, the Large intestine [1, 5] was 13.76 % ID/g and the Liver [1, 5] was 5.84 % ID/g. The Lung [1, 5] was 4.41 % ID/g, the Muscle [1, 5] was 3.80 % ID/g and the Small intestine [1, 5] was 5.76 % ID/g. The Stomach [1, 5] was 4.17 % ID/g, the “T/B (tumor/blood ratio)” value [1, 5] was 1.06 and the “T/M (tumor/muscle ratio)” value [1, 5] was 1.24. For the same compound, the Tumor [1, 5] was 4.71 % ID/g, the Urine [1, 5] was 34.98 % ID and the Blood [1, 6] was 2.26 % ID/g. The Gall bladder [1, 6] was 43.43 % ID/g, the Heart [1, 6] was 3.33 % ID/g and the Kidney [1, 6] was 3.89 % ID/g. It also gave a Large intestine [1, 6] of 21.16 % ID/g, a Liver [1, 6] of 3.85 % ID/g and a Lung [1, 6] of 2.69 % ID/g. It also gave a Muscle [1, 6] of 2.29 % ID/g, a Small intestine [1, 6] of 4.63 % ID/g and a Stomach [1, 6] of 1.85 % ID/g. For the same compound, the “T/B (tumor/blood ratio)” value [1, 6] was 1.91, the “T/M (tumor/muscle ratio)” value [1, 6] was 1.88 and the Tumor [1, 6] was 4.28 % ID/g. For the same compound, the Urine [1, 6] was 41.45 % ID, the “Coincidence of accumulation site with localization of pimonidazole (hypoxic marker)” value [2] was “did not visually coincide” and the “Correlation coefficient (pimonidazole-positive area vs PSL value in autoradiographic image)” value [3] was 0.55. The “SUV maximum value (in tumor)” value ([4]; about 20 MBq via tail vein, axial PET image, ROI entire tumor) was 0.98 and the Tumor/normal tissue ratio ([4]; SUV maximum in tumor versus average SUV of left body side (lung and muscle)) was 2.03.
